Patent publication US10800760B2, “Trk inhibition” (NantBio, Inc., priority 2017, dated 2020)

Each compound was assayed against T1, TrkA(h) (Homo sapiens, UniProt P04629) (assay: KinaseProfiler (Millipore) radiometric kinase assay, TrkA(h)). Details: compound concentration 1 μM.
T1 construct: purchased Millipore (KinaseProfiler Service)
Format: biochemical
Experimental: The KinaseProfiler™ Service Assay Protocols (Millipore) were used to test the kinase inhibiting activity of the novel compounds from this invention. To do this, the buffer composition was as follows: 20 mM MOPS, 1 mM EDTA, 0.01% Brij-35, 5% Glycerol, 0.1% β-mercaptoethanol, 1 mg/mL BSA. Test compounds were initially dissolved in DMSO at the desired concentration, then serially diluted into the kinase assay buffer. In a final reaction volume of 25 μL, TrkA(h) (5-10 mU) is incubated with 8 mM MOPS pH 7.0, 0.2 mM EDTA, 200 μM LRRASLG (Kemptide), 10 mM MgAcetate and [γ^33P-ATP]. The reaction was initiated by the addition of the MgATP mix. After incubation for 40 minutes at room temperature, the reaction was stopped by addition of 5 μL of a 3% phosphoric acid solution. 10 μL of the reaction was then spotted onto a P30 filtermat and washed three times for 5 minutes in 50 mM phosphoric acid and once in methanol prior to drying and scintillation counting. Wells containing substrate but no kinase and wells containing a phosphopeptide control were used to set 0% and 100% phosphorylation value, respectively.

T1 sequence (P04629 33-796): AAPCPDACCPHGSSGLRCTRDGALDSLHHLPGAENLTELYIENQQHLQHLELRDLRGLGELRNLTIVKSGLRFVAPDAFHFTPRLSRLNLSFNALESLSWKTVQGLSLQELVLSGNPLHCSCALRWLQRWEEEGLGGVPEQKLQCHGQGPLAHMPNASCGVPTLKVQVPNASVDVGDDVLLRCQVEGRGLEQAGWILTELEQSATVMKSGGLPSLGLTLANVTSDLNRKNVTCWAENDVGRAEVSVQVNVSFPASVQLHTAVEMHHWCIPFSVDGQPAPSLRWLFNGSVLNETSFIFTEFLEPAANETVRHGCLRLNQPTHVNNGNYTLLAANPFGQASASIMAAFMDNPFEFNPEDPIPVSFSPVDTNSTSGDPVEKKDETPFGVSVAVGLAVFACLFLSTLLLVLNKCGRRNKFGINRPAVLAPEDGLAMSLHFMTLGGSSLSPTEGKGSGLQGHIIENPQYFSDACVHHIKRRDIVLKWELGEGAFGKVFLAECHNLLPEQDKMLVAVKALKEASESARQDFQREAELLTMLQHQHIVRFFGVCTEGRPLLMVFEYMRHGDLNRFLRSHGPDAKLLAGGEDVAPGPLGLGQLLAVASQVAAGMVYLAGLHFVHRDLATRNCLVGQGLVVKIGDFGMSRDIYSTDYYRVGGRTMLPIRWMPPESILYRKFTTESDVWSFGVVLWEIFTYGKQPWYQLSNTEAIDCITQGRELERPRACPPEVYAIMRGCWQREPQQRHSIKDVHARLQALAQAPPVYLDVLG

| Structure (SMILES) | inhibition at 1 µM [%] | % Inhibition@ 1 μM (TrkA(h)) [%] |
| --- | --- | --- |
| CC(Nc1cc(Nc2cc(C3CC3)[nH]n2)ncn1)c1c(F)cccc1F (single isomer, unassigned) [Example 30] | 100 | – |
| CC(Nc1cc(Nc2cc(C3CC3)n(C(=O)OC(C)(C)C)n2)ncn1)c1c(F)cccc1F (stereo not drawn) [Example 31] | 99 | – |
| C[C@H](Nc1ncnc(Nc2cc(C3CC3)[nH]n2)c1C#N)c1ccc(F)cc1 [Example 26] | 49 | – |
| C[C@H](Nc1ncnc(Nc2cc(C3CC3)[nH]n2)c1Cl)c1ccc(F)cc1 [Example 28, (S)-5-chloro-N4-(5-cyclopropyl-1H-pyrazol-3-yl)-N6-(1-(4-fluorophenyl)ethyl)pyrimidine-4,6-diamine] | 56 | – |
| C[C@H](Nc1cc(Nc2cc(C3CC3)[nH]n2)ncn1)c1ccc(F)cc1 [Example 23, (S)—N4-(5-cyclopropyl-1H-pyrazol-3-yl)-N6-(1-(4-fluorophenyl)ethyl)pyrimidine-4,6-diamine] | 99 | – |
| C[C@@H](Nc1cc(Nc2cc(C3CC3)[nH]n2)ncn1)c1ccc(F)cc1F [Example 33] | 60 | – |
| CC(Nc1cc(Nc2cc(C3CC3)[nH]n2)ncn1)c1ccc(F)c(Cl)c1 (stereo not drawn) [Example 37] | 97 | – |
| COc1c(Nc2cc(C3CC3)[nH]n2)ncnc1N[C@@H](C)c1ccc(F)cc1 [Example 25, (S)—N4-(5-cyclopropyl-1H-pyrazol-3-yl)-N6-(1-(4-fluorophenyl)ethyl)-5-methoxypyrimidine-4,6-diamine] | 0 | – |
| CN1CCN(c2ccc(CNc3ncnc(Nc4cc(C5CC5)[nH]n4)c3C#N)cc2)CC1 [Example 29] | -5 | – |
| CC(Nc1cc(Nc2cc(C3CC3)[nH]n2)ncn1)c1ccc(F)cc1Cl (stereo not drawn) [Example 36] | 101 | – |
| CC(Nc1cc(Nc2cc(C3CC3)[nH]n2)ncn1)c1ccc(F)cc1F (stereo not drawn) [Example 32, N4-(5-cyclopropyl-1H-pyrazol-3-yl)-N6-(1-(2,4-difluorophenyl)ethyl)pyrimidine-4,6-diamine] | 104 | – |
| Cc1c(Nc2cc(C3CC3)[nH]n2)ncnc1N[C@@H](C)c1ccc(F)cc1 [Example 24] | 31 | – |
| C[C@H](Nc1cc(Nc2cc(C3CC3)[nH]n2)ncn1)c1ccc(F)cc1F [Example 34] | 101 | – |
| CC(Nc1cc(Nc2cc(C3CC3)[nH]n2)ncn1)c1cc(F)ccc1F (stereo not drawn) [Example 35] | 99 | – |
| C[C@H](Nc1ncnc(Nc2cc(C3CC3)[nH]n2)c1F)c1ccc(F)cc1 [Example 27] | 87 | – |

Other lines, results leading:

| inhibition at 1 µM [%] | % Inhibition@ 1 μM (TrkA(h)) [%] | Structure (SMILES) |
| --- | --- | --- |
| 100 | – | C[C@H](Nc1cc(Nc2cc(C3CC3)[nH]n2)ncn1)c1ccc(F)cc1Cl [Example 54] |
| 100 | – | C[C@H](Nc1ncnc(Nc2cc(C3CC3)[nH]n2)n1)c1ccc(F)cc1F [Example 58] |
| 99 | – | Cc1cc(Nc2cc(NC(C)c3ccc(F)cc3F)ncn2)n[nH]1 (stereo not drawn) [Example 50] |
| 71 | – | c1ccc(C(CN2CCOCC2)Nc2cc(Nc3cc(C4CC4)[nH]n3)ncn2)cc1 (stereo not drawn) [Example 38] |
| 100 | – | C[C@H](Nc1cc(Nc2cc(C3CC3)[nH]n2)nc(N)n1)c1ccc(F)cc1F [Example 53] |
| 25 | – | CC(Nc1cc(Nc2cc(C3CC3)n(C)n2)ncn1)c1ccc(F)cc1F (stereo not drawn) [Example 47] |
| 67 | – | CN(C)CC(Nc1cc(Nc2cc(C3CC3)[nH]n2)ncn1)c1ccccc1 (stereo not drawn) [Example 56] |
| – | 101 | CC(Nc1cc(Nc2cc(C3CC3)[nH]n2)ncn1)c1ccc(F)cn1 (stereo not drawn) [Example 52, N4-(5-cyclopropyl-1H-pyrazol-3-yl)-N6-(1-(5-fluoropyridin-2-yl)ethyl)pyrimidine-4,6-diamine] |
| – | 98 | CC(Nc1cc(Nc2cc(C3CC3)[nH]n2)ncn1)c1ccc(F)cn1 (stereo not drawn) [Example 44, N4-(5-cyclopropyl-1H-pyrazol-3-yl)-N6-(1-(5-fluoropyridin-2-yl)ethyl)pyrimidine-4,6-diamine] |
| – | 95 | CC(Nc1cc(Nc2cc(C3CC3)[nH]n2)ncn1)c1ccc(F)cn1 (stereo not drawn) [Example 57, N4-(5-cyclopropyl-1H-pyrazol-3-yl)-N6-(1-(5-fluoropyridin-2-yl)ethyl)pyrimidine-4,6-diamine] |
| 95 | – | CC(Nc1cc(Nc2cc(C3CC3)[nH]n2)ncn1)c1ccc(F)cn1 (stereo not drawn) [Example 43, N4-(5-cyclopropyl-1H-pyrazol-3-yl)-N6-(1-(5-fluoropyridin-2-yl)ethyl)pyrimidine-4,6-diamine] |
| 95 | – | CC(c1cc(F)ccc1F)N(C)c1cc(Nc2cc(C3CC3)[nH]n2)ncn1 (stereo not drawn) [Example 42] |
| – | 98 | CC(Nc1cc(Nc2cc(C3CC3)[nH]n2)ncn1)c1ccc(F)cn1 (stereo not drawn) [Example 46, N4-(5-cyclopropyl-1H-pyrazol-3-yl)-N6-(1-(5-fluoropyridin-2-yl)ethyl)pyrimidine-4,6-diamine] |
| 10 | – | CCn1nc(Nc2cc(NC(C)c3ccc(F)cc3F)ncn2)cc1C1CC1 (stereo not drawn) [Example 48] |
| – | 100 | CC(Nc1cc(Nc2cc(C3CC3)[nH]n2)ncn1)c1ccc(F)cn1 (stereo not drawn) [Example 45, N4-(5-cyclopropyl-1H-pyrazol-3-yl)-N6-(1-(5-fluoropyridin-2-yl)ethyl)pyrimidine-4,6-diamine] |
| 101 | – | OCC(Nc1cc(Nc2cc(C3CC3)[nH]n2)ncn1)c1ccc(F)cc1 (stereo not drawn) [Example 40] |
| 7 | – | CN1CCN(CC(Nc2cc(Nc3cc(C4CC4)[nH]n3)ncn2)c2ccccc2)CC1 (stereo not drawn) [Example 39] |
| 100 | – | C[C@H](Nc1ncnc(Nc2cc(C3CC3)[nH]n2)n1)c1ccc(F)cc1Cl [Example 59] |
| 100 | – | CCCc1cc(Nc2cc(NC(C)c3ccc(F)cc3F)ncn2)n[nH]1 (stereo not drawn) [Example 51] |
| 85 | – | COCC(Nc1cc(Nc2cc(C3CC3)[nH]n2)ncn1)c1ccccc1 (stereo not drawn) [Example 55] |
| 5 | – | CC(Nc1cc(Nc2ccn(C3CCOCC3)n2)ncn1)c1ccc(F)cc1F (stereo not drawn) [Example 49] |
